Measurements reported in PMC9416150, “Development and Validation of [^3H]OF-NB1 for Preclinical Assessment of GluN1/2B Candidate Drugs” (Pharmaceuticals, 2022).
Where two headings read alike, the source gives them in different places. Blank lines part the entries; values can stand above or below the compound they belong to.

Key:
[1] = molecular target: T1, GluN1/2B (Rattus norvegicus, UniProt P35439+Q00960); assay: In vitro GluN1/2B competitive binding assay with [3H]OF-NB1; details: radioligand [3H]OF-NB1; Wistar rat brain homogenates; 25 °C
T1 construct: from tissue; host or cells: Wistar rat whole brain homogenate
T1 sequence (Q00960 27-1482, other chains not shown): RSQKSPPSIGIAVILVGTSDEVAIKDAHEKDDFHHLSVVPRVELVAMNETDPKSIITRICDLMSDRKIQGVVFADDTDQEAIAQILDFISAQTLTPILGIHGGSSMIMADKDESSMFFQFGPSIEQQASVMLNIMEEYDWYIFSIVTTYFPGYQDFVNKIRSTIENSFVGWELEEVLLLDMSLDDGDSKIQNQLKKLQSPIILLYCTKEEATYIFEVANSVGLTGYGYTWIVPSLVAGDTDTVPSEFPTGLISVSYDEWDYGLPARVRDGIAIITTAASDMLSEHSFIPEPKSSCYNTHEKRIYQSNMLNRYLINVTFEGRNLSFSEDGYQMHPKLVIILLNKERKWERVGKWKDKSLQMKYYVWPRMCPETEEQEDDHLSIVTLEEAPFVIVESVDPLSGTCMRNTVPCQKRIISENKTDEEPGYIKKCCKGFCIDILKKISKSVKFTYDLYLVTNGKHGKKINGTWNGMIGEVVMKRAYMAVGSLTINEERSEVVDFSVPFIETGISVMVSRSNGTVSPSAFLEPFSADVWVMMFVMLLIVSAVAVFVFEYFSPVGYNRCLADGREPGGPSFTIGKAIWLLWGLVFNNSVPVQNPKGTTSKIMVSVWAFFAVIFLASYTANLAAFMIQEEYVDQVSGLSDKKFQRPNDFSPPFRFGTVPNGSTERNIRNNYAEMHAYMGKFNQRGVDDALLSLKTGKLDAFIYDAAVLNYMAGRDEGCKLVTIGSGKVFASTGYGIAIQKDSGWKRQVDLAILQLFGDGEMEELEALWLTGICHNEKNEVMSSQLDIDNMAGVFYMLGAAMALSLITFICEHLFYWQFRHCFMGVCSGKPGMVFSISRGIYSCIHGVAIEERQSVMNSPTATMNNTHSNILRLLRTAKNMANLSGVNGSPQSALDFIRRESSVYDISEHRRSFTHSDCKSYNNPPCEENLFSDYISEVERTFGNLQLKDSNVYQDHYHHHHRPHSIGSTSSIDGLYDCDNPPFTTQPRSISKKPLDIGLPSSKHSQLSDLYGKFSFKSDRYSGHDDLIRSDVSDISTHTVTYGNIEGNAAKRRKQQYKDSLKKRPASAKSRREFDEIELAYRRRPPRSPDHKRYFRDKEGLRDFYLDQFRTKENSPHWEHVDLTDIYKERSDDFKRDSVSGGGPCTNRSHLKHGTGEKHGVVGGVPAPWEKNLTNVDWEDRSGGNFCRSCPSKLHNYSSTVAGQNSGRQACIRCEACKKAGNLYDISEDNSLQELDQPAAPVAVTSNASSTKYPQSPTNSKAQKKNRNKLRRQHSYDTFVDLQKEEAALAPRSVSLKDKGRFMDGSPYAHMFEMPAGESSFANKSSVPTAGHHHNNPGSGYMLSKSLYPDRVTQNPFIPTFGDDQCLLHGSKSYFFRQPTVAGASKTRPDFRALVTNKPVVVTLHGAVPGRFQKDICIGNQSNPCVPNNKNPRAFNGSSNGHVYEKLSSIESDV
Procedure: (§1) Competitive binding assays were performed as previously reported. […] A dilution series of the test ligands was prepared ranging from 30 µM to 300 pM. […] Each measurement vial contained 0.5 mg/mL of brain homogenate proteins, 20 µL of cold ligand, 10 µL of radioligand and was diluted to 200 µL with HEPES buffer. The vials were incubated at 25 °C and 110 rpm for 1 h. The mixtures were quenched with buffer and filtered through Whatman® GF/C 25 mm filters soaked with 0.05% PEI solution. Filters were washed twice with cold buffer and placed in scintillation vials. Scintillation vials were filled with 2 mL Ultima Gold^TM LSC cocktail and measured in a Beckmann LS6500 liquid scintillator counter.

[2] = molecular target: T1, GluN1/2B; assay: In vitro GluN1/2B competitive binding assay with [3H]ifenprodil; details: radioligand [3H]ifenprodil; Wistar rat brain homogenates; 25 °C
Procedure: as §1

[3] = molecular target: GluN1/2B; details: cited from earlier work
[4] = molecular target: σ1R; details: cited from earlier work
[5] = molecular target: σ2R; set-up: method as in earlier work; details: ref 18 (Hashimoto 2015); cited from earlier work
[6] = set-up: method as in PMID 35710735; details: n = 4; cited from earlier work
[7] = molecular target: T2, σ1R (Rattus norvegicus, UniProt Q9R0C9); details: Wistar rats; for %RO calculated / %RO predicted: σ1R occupancy, [18F]fluspidine
T2 sequence (Q9R0C9 whole entry): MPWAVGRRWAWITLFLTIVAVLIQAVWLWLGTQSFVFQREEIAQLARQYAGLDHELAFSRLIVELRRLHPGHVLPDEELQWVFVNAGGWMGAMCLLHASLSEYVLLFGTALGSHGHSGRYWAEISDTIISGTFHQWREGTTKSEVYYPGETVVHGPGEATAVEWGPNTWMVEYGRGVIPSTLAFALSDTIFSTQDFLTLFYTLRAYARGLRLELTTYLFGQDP
Procedure: A series of doses were investigated, ranging from 0.05–15 mg/kg. […] There have been efforts to develop ligands with dual GluN1/2B and σ1R activity. Nonetheless, for the purpose of developing selective GluN1/2B ligands, one has to consider fundamentally reformulating the development strategy.
All non-aqueous reactions were performed under N2 atmosphere using flame-dried glassware and standard syringe/septa methods unless stated otherwise. Reactions were magnetically stirred and further monitored by thin layer chromatography (TLC) performed on Merck TLC aluminum sheets (silica gel 60 F254). TLC spots were visualized using UV light (λ = 254 nm) or through staining with KMnO4 solution. Chromatographic purification of products was performed using SiliaFlash P60 silica gel (Silicycle) for preparative column chromatography with a particle size of 40–63 μm (230–400 mesh). Reactions at −78 °C were cooled in a dry ice/acetone bath and reactions at 0 °C were cooled in an ice/water bath. Chemicals were purchased from ABCR, Acros Organics, Amatek Chemical, Fluorochem, Merck, Perkin Elmer and Sigma Aldrich and used without further purification. Solvents for TLC, extraction and flash column chromatography were of technical grade. Extra dry solvents for all non-aqueous reactions were supplied by Acros Organics (puriss., dried over molecular sieves, water content <0.005%). Deuterated solvents (D, 99.9%) were purchased from Cambridge Isotope Laboratories, Inc. NMR spectra of compounds 3, 7 and 8 are presented in the Supplementary Material (Section S1). Tritium labeling was performed by RC Tritec AG (Teufen, Switzerland). […] Positron emission tomography (PET) imaging was performed in Wistar rats according to a previously published procedure.
Standard uptake values (SUVs) are averaged from 0–90 min.

[8] = molecular target: σR; details: read-out: Ki (σ1R); published value using the σR ligand [3H]3-PPP; cited from earlier work
[9] = test system: GluN1/2B; details: cited from earlier work; remark: listed apart in the source
[10] = molecular target: T2, σ1R; assay: In vitro σ1R competitive binding assay with (+)-[3H]pentazocine; set-up: from tissue; host or cells: brain of living Wistar rats (in vivo PET); details: radioligand (+)-[3H]pentazocine; Wistar rat brain homogenates; 37 °C
From the text: The mixtures were quenched with buffer and filtered through Whatman® GF/C 25 mm filters soaked with 0.05% PEI solution.

Ki [1]: > 100000 nM | Ki [2]: 51 ± 13 nM
Compound: COc1ccc(CCN2CCN(CCCc3ccccc3)CC2)cc1OC [SA-4503]

Compound: CC(C(O)c1ccc(O)cc1)N1CCC(Cc2ccccc2)CC1 (stereo not shown) [[^3H]Ifenprodil]
Ki ([3]; ref 17 (Alarcon et al. 2008)): 11 nM | Ki ([4]; ref 18 (Hashimoto 2015)): 13 nM | Ki [5]: 1.89 nM

Compound: Oc1ccc2c(c1)CCN(CCCCc1ccccc1F)CC2O (stereo not shown) [OF-NB1]
Ki ([3]; ref 22 (Ahmed et al. 2021)): 10.4 ± 4.7 nM | Ki ([4]; ref 22 (Ahmed et al. 2021)): 410 nM | log D7.4 [6]: 2.05 ± 0.08

Compound: C[C@@H]([C@@H](O)c1ccc(O)cc1)N1CCC(O)(c2ccccc2)CC1 [CP-101,606]
D50 (σ1R) ([7]; administered dose occupying 50% of σ1Rs, [18F]fluspidine PET): 4.9 µmol/kg | blockade of [18F]fluspidine brain uptake ([7]; doses 0.05–15 mg/kg): dose-dependent blockade | %RO calculated ([7]; dose 0.05 mg/kg): 3.72% | %RO predicted ([7]; dose 0.05 mg/kg): 2.43% | %RO calculated ([7]; dose 3 mg/kg): 61.9% | %RO predicted ([7]; dose 3 mg/kg): 59.2% | %RO calculated ([7]; dose 7 mg/kg): 71.2% | %RO predicted ([7]; dose 7 mg/kg): 77.1% | %RO calculated ([7]; dose 15 mg/kg): 91.2% | %RO predicted ([7]; dose 15 mg/kg): 87.8% | Ki ([3]; reported literature value): 16 nM | Ki [8]: 60 nM | D50 (GluN1/2B) [9]: 8.1 µmol/kg | Ki [10]: 94 ± 6 nM
